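Cultured in 96-well plates, cells were exposed to test compound for 48 hours across five concentrations. GI50 = concentration required for 50% inhibition of growth. TGI marks complete inhibition of growth.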

For 28 molecules, TGI and GI50 results are on record in PubChem BioAssay (NCI).

The subject of one assay is EKVX NSCLC. Put plainly: NCI-60 cell line screen, 48 h.
`O=S1SC(=S)C2C=CC=CC21` (stereo not drawn): the TGI was over 100 µM.
On the same count and under the same terms, as for `CC1(C)CC(C#Cc2ccccc2)CC(C)(C)N1O`, the figure is over 100 µM; as for `Cc1ccc(NC(=O)/C(Cc2nc3ccc([N+](=O)[O-])cc3[nH]c2=O)=N\NC(=O)C[n+]2ccccc2)c(C)c1`, over 100 µM.
The same measure, in the same setting: as for `CCN1C(=O)C(=C/C=C/c2ccc(N(CC)CC)cc2)C(=O)N(CC)C1=S`, the figure is over 100 µM; as for `COc1ccc(NC(C)c2ccncc2)cc1` (stereo not drawn), over 100 µM.
For `O=C1C=CC(=O)C(CNc2ccc(C(=O)OCc3ccccc3)cc2)=C1`, the TGI came to 23.7 µM.
In the case of `C/C(=C\CO)CC/C=C(\C)CNc1ccc([N+](=O)[O-])cc1`, the TGI is over 100 µM.
With `CC(C)C1=C(O)C2=C(C(=O)C1=O)C1(C)CCCC(C)(C)C1C(O)C2OC=O` (stereo not drawn), the TGI amounted to 21.7 µM.
The same measure, in the same setting: to `CC(C)[Si](OC/C(=C/COC(C)(C)C)[C@H]1CC=C(C(=O)c2ccccc2N2CN(C)C(=O)N(C)C2)C1)(C(C)C)C(C)C` belongs 30.3 µM; to `CCOC(=O)C1=CC(C)(C(=O)OCC)Nc2c(nc(N)[nH]c2=O)N1` (stereo not drawn), over 10 µM.

The test system of the next assay is SF-295 CNS. Put plainly: NCI-60 cell line screen, 48 h.
Regarding `COc1cc2[nH]c(-c3ccccc3)cc(=O)c2c(OC)c1OC`, the TGI is over 100 µM.
Still for that read-out and setting: as for `CCOP(=O)(OCC)OC1CC(n2cc(C)c(=O)n(C)c2=O)OC1CO[Si](C)(C)C(C)(C)C` (stereo not drawn), the figure is over 100 µM; as for `Cc1cc(C)nc(NS(=O)(=O)c2ccc(NC(=O)c3cccc4c(NNc5ccc(S(=O)(=O)N=C(N)N)cc5)c5ccccc5nc34)cc2)n1`, over 50 µM.
Still for that read-out and setting: as for `O=C(CC(C(=O)c1ccco1)c1ccco1)c1ccco1` (stereo not drawn), the figure is over 100 µM; as for `O=C1CS(=O)(=O)C(c2cccc(Oc3ccccc3)c2)N1c1cc(Cl)ccc1Cl` (stereo not drawn), 62.1 µM.
Still for that read-out and setting: as for `Nc1ccc(-c2nn3c(COc4ccc(Cl)cc4)nnc3s2)cc1`, the figure is over 100 µM.
`COP(=O)(OC)C(Nc1ccc(Cc2ccc(NC(c3ccco3)P(=O)(OC)OC)cc2)cc1)c1ccco1` (stereo not drawn) had a TGI of 82.2 µM.
Still for that read-out and setting: as for `O=C(CC(=O)Nc1ccccc1)NNC(c1cc(N=Nc2ccc(Br)cc2)ccc1O)P(O)O` (stereo not drawn), the figure is over 10 µM; as for `CCOC(=O)C1CCC(=O)N1C(=O)c1ccccc1Cl` (stereo not drawn), over 100 µM.
Same read-out and setting: as for `CCOC(=O)c1ccc(Nc2nc3ccc(C(F)(F)F)cc3nc2C(=O)OCC)cc1`, the figure is over 100 µM; as for `O=C1C(C(O)(C(F)(F)F)C(F)(F)F)CCC1C(O)(C(F)(F)F)C(F)(F)F` (stereo not drawn), 21 µM.
As for `COc1ccc(C2c3cc4c(cc3OC(NCCO)C2C)OCO4)cc1` (stereo not drawn), the TGI was 89.1 µM.
The molecule `COc1nc2c(N3CCCC3)nc(N3CCNCC3)nc2nc1NCc1ccccc1` yielded a TGI of 3.35 µM.
On the same count and under the same terms, as for `COC(=O)[C@H](Cc1ccccc1)NC(=O)N(CCC#N)CCN(C(=O)N[C@@H](Cc1ccccc1)C(=O)OC)c1ccccc1`, the figure is over 100 µM.
Same read-out and setting: to `COC1C(O)C(O[C@H]2CC[C@@]3(C)C(CC[C@@H]4[C@@H]3CC[C@]3(C)[C@@H](C(C)OC5OC(CO)C(O)C(O)C5O)CC[C@]43O)C2)OC(C)C1OC1OC(CO)C(O)C(O)C1O` (stereo partly drawn) belongs over 100 µM; to `Cc1cc(NS(=O)(=O)c2ccc(NC(NC(=O)C(C(F)(F)F)C(F)(F)F)(C(F)(F)F)C(F)(F)F)cc2)no1`, over 100 µM; to `O=S1SC(=S)C2C=CC=CC21` (stereo not drawn), over 100 µM.
The same measure, in the same setting: as for `CC1(C)CC(C#Cc2ccccc2)CC(C)(C)N1O`, the figure is 35.1 µM; as for `Cc1ccc(NC(=O)/C(Cc2nc3ccc([N+](=O)[O-])cc3[nH]c2=O)=N\NC(=O)C[n+]2ccccc2)c(C)c1`, over 100 µM; as for `CCN1C(=O)C(=C/C=C/c2ccc(N(CC)CC)cc2)C(=O)N(CC)C1=S`, over 100 µM.
In turn, `COc1ccc(NC(C)c2ccncc2)cc1` (stereo not drawn) showed a TGI of over 100 µM.
`O=C1C=CC(=O)C(CNc2ccc(C(=O)OCc3ccccc3)cc2)=C1` displayed a TGI of 34.5 µM.
On to `C/C(=C\CO)CC/C=C(\C)CNc1ccc([N+](=O)[O-])cc1`, for which the TGI was over 100 µM.
Still for that read-out and setting: as for `CC(C)C1=C(O)C2=C(C(=O)C1=O)C1(C)CCCC(C)(C)C1C(O)C2OC=O` (stereo not drawn), the figure is 29.3 µM.
For the molecule `CC(C)[Si](OC/C(=C/COC(C)(C)C)[C@H]1CC=C(C(=O)c2ccccc2N2CN(C)C(=O)N(C)C2)C1)(C(C)C)C(C)C`, the TGI was 28.9 µM.
Same read-out and setting: to `CCN(CCCl)c1cc(CN(C)C)cc(NC(=O)c2ccc(C(=O)Nc3cccc(CN(C)C)c3)cc2)c1` belongs 13.2 µM; to `CCOC(=O)C1=CC(C)(C(=O)OCC)Nc2c(nc(N)[nH]c2=O)N1` (stereo not drawn), over 10 µM.

The next assay has as its system HOP-62 NSCLC. In words: NCI-60 cell line screen, 48 h.
For the molecule `COc1cc2[nH]c(-c3ccccc3)cc(=O)c2c(OC)c1OC`, the TGI was over 100 µM.
Molecule `CCOP(=O)(OCC)OC1CC(n2cc(C)c(=O)n(C)c2=O)OC1CO[Si](C)(C)C(C)(C)C` (stereo not drawn) displayed a TGI of over 100 µM.
`Cc1cc(C)nc(NS(=O)(=O)c2ccc(NC(=O)c3cccc4c(NNc5ccc(S(=O)(=O)N=C(N)N)cc5)c5ccccc5nc34)cc2)n1` gave a TGI of over 50 µM.
Same read-out and setting: as for `O=C(CC(C(=O)c1ccco1)c1ccco1)c1ccco1` (stereo not drawn), the figure is over 100 µM.
`Nc1ccc(-c2nn3c(COc4ccc(Cl)cc4)nnc3s2)cc1`: the GI50 is 20.2 µM and the TGI was over 100 µM.
Molecule `COP(=O)(OC)C(Nc1ccc(Cc2ccc(NC(c3ccco3)P(=O)(OC)OC)cc2)cc1)c1ccco1` (stereo not drawn) registered a TGI of 20.4 µM.
The same measure, in the same setting: as for `O=C(CC(=O)Nc1ccccc1)NNC(c1cc(N=Nc2ccc(Br)cc2)ccc1O)P(O)O` (stereo not drawn), the figure is over 10 µM; as for `CCOC(=O)C1CCC(=O)N1C(=O)c1ccccc1Cl` (stereo not drawn), over 100 µM; as for `CCOC(=O)c1ccc(Nc2nc3ccc(C(F)(F)F)cc3nc2C(=O)OCC)cc1`, over 100 µM.
The same measure, in the same setting: as for `COc1ccc(C2c3cc4c(cc3OC(NCCO)C2C)OCO4)cc1` (stereo not drawn), the figure is over 100 µM.
Still for that read-out and setting: as for `COc1nc2c(N3CCCC3)nc(N3CCNCC3)nc2nc1NCc1ccccc1`, the figure is 2.29 µM; as for `COC(=O)[C@H](Cc1ccccc1)NC(=O)N(CCC#N)CCN(C(=O)N[C@@H](Cc1ccccc1)C(=O)OC)c1ccccc1`, over 100 µM; as for `COC1C(O)C(O[C@H]2CC[C@@]3(C)C(CC[C@@H]4[C@@H]3CC[C@]3(C)[C@@H](C(C)OC5OC(CO)C(O)C(O)C5O)CC[C@]43O)C2)OC(C)C1OC1OC(CO)C(O)C(O)C1O` (stereo partly drawn), over 100 µM.
`Nc1nc(Nc2ccccc2)sc1C(=O)c1ccco1` showed a TGI of 67.8 µM.
For `Cc1cc(NS(=O)(=O)c2ccc(NC(NC(=O)C(C(F)(F)F)C(F)(F)F)(C(F)(F)F)C(F)(F)F)cc2)no1`, the TGI is over 100 µM.
Same read-out and setting: to `CC1(C)CC(C#Cc2ccccc2)CC(C)(C)N1O` belongs 32.7 µM; to `Cc1ccc(NC(=O)/C(Cc2nc3ccc([N+](=O)[O-])cc3[nH]c2=O)=N\NC(=O)C[n+]2ccccc2)c(C)c1`, over 100 µM.
On the same count and under the same terms, as for `CCN1C(=O)C(=C/C=C/c2ccc(N(CC)CC)cc2)C(=O)N(CC)C1=S`, the figure is 50.7 µM; as for `COc1ccc(NC(C)c2ccncc2)cc1` (stereo not drawn), over 100 µM; as for `O=C1C=CC(=O)C(CNc2ccc(C(=O)OCc3ccccc3)cc2)=C1`, 33 µM.
The same measure, in the same setting: to `C/C(=C\CO)CC/C=C(\C)CNc1ccc([N+](=O)[O-])cc1` belongs over 100 µM; to `CC(C)C1=C(O)C2=C(C(=O)C1=O)C1(C)CCCC(C)(C)C1C(O)C2OC=O` (stereo not drawn), over 100 µM.
Consider `CC(C)[Si](OC/C(=C/COC(C)(C)C)[C@H]1CC=C(C(=O)c2ccccc2N2CN(C)C(=O)N(C)C2)C1)(C(C)C)C(C)C`, for which the TGI stood at 31.5 µM.
On the same count and under the same terms, as for `CCN(CCCl)c1cc(CN(C)C)cc(NC(=O)c2ccc(C(=O)Nc3cccc(CN(C)C)c3)cc2)c1`, the figure is 10.8 µM; as for `CCOC(=O)C1=CC(C)(C(=O)OCC)Nc2c(nc(N)[nH]c2=O)N1` (stereo not drawn), over 10 µM.
